Data taken from patent US20110152267A1, “Compositions and Methods for Treating Hyperproliferative Disorders” (Texas Tech University System, priority 2009, published 2011).

Key:
Type in all cases: cell-based, human
[1] = tested on: A-172 Glioblastoma multiforme cell line; assay: DIMSCAN cytotoxicity, fenretinide + L-threo-sphinganines 3:1 (Example B4); parameters: key to CI (Combination Index): Chou-Talalay CI: <0.9 synergy, 0.9-1.1 additive, >1.1 antagonism; conditions: 96 h
Protocol: (§1) Cytotoxicity Assay—Once again, cytotoxicity is determined using the DIMSCAN assay system (R. Proffitt et al., Cytometry 24, 204-213 (1996); T. Frgala et al., Mol Cancer Ther. 6:886-97, 2007). The system employs digital imaging microscopy to quantify viable cells, which selectively accumulate fluorescein diacetate to become brightly fluorescent. The system is capable of measuring cytotoxicity over a 4-5 log dynamic range by quenching the residual fluorescence of dead and dying cells with eosin Y and quantifying the total fluorescence of viable cells using digital thresholding. Measured fluorescence is directly proportionate to the number of viable cells. A comparison of the total fluorescence of a drug-treated cell population to the fluorescence of a similar number of untreated cells yields a survival fraction. In brief, 2000 to 10,000 cells/well (depending on size and growth rates) are replicate plated into 60 wells of a 96-well tissue culture plate in 0.1 mL of whole medium and allowed to attach overnight. Drug(s) are then added in 0.05 mL of whole medium to the final concentrations indicated. Drugs (fenretinide, and various chain length L-threo-sphinganines) were tested both as single agents and in a 3:1 ratio of fenretinide:sphinganine. C18-L-threo-sphinganine, or “safingol,” was also tested and results shown for reference. There are 12 wells treated per drug concentration. Twelve wells receive drug vehicle-only to the appropriate final concentration and serve as controls for the plate. Cells are incubated for 96 hours at 37° C. in ambient air with 5% CO2. Fluorescein diacetate is then added to each well in 0.05 mL media to a final concentration of 8 microgram/mL. Cells are incubated for a further 15 minutes at 37° C. and 0.03 mL of 0.5% eosin Y is added to each well. Total fluorescence of viable cells is then measured by digital imaging microscopy. Results were graphed as the ratio of the fluoresecence of drug-treated wells to non-drug treated control wells (i.e., Survival Fraction). All tests were performed at least twice. Representative results are shown.
(§2) The Combination Index (CI) is a term to describe mathematical modeling of the pharmacologic effects on cytotoxicity (cell death) of two drugs in combination based. Cytotoxic “synergy” is defined as a cell death affect which is greater than would be expected from a simple product of the single agent cytotoxicities alone (i.e. an “additive” effect). By Chou-Talalay analysis, a CI<0.9 on a Fraction Affected (“Fa”, i.e. fraction of cells killed) indicates synergy, with smaller numbers indicating greater synergy; a CI of 0.9-1.1 signifies an additive or near-additive effect; and a CI>1.1 means the drug combination is antagonistic.
Fenretinide and L-threo-sphinganines tested in human Glioblastoma multiforme (brain cancer) cell line, A-172.

[2] = tested on: SJ-G2 Glioblastoma cell line; assay: DIMSCAN cytotoxicity, fenretinide + L-threo-sphinganines 3:1 (Example B8); conditions: 96 h
Protocol: as §1, §2
Fenretinide and L-threo-sphinganines tested in human Glioblastoma (brain cancer) cell line, SJ-G2.

[3] = tested on: U-118 Glioblastoma cell line; assay: DIMSCAN cytotoxicity, fenretinide + L-threo-sphinganines 3:1 (Example B5); parameters: key to CI (Combination Index): CI<0.9 synergy, 0.9-1.1 additive, >1.1 antagonistic; conditions: U-118 MG, 96 h
Protocol: as §1, §2
Fenretinide and L-threo-sphinganines tested in human Glioblastoma (brain cancer) cell line, U-118.

[4] = tested on: T98G Glioblastoma multiforme cell line; assay: DIMSCAN cytotoxicity, fenretinide + L-threo-sphinganines 3:1 (Example B6); conditions: 96 h
Protocol: as §1, §2
Fenretinide and L-threo-sphinganines tested in human Glioblastoma multiforme (brain cancer) cell line, T98G.

[5] = tested on: RPMI-8226 Multiple Myeloma cell line; assay: DIMSCAN cytotoxicity, fenretinide + L-threo-sphinganines 3:1 (Example B2); conditions: 96 h
Protocol: as §1, §2
Fenretinide and L-threo-sphinganines tested in human Multiple Myeloma (a cancer of the blood and bone marrow) cell line, RPMI-8226.

[6] = 4-HPR 1.5 μM + L-threo-sphinganine 0.5 μM
[7] = 4-HPR 3 μM + L-threo-sphinganine 1 μM
[8] = 4-HPR 6 μM + L-threo-sphinganine 2 μM
[9] = 4-HPR 9 μM + L-threo-sphinganine 3 μM

Compound | CI (Combination Index) [1, 6] | Fa (fraction affected) [1, 6] | CI (Combination Index) [1, 7] | Fa (fraction affected) [1, 7] | CI (Combination Index) [1, 8] | Fa (fraction affected) [1, 8] | CI (Combination Index) [1, 9] | Fa (fraction affected) [1, 9] | CI (Combination Index) [2, 6] | Fa (fraction affected) [2, 6] | CI (Combination Index) [2, 7] | Fa (fraction affected) [2, 7] | CI (Combination Index) [2, 8] | Fa (fraction affected) [2, 8] | CI (Combination Index) [2, 9] | Fa (fraction affected) [2, 9] | CI (Combination Index) [3, 6] | Fa (fraction affected) [3, 6] | CI (Combination Index) [3, 7] | Fa (fraction affected) [3, 7] | also measured
CCCCCCCCCCCC[C@H](O)[C@@H](N)CO [C15] | 23.7 | 0.001 | 1.4 | 0.378 | 0.4 | 0.991 | 0.4 | 0.998 | 1.1 | 0.135 | 1.3 | 0.282 | 1.3 | 0.620 | 1.0 | 0.846 | 0.4 | 0.371 | 0.5 | 0.577 | CI (Combination Index) [3, 8]: 0.4; Fa (fraction affected) [3, 8]: 0.847; CI (Combination Index) [3, 9]: 0.1; Fa (fraction affected) [3, 9]: 0.989; CI (Combination Index) [4, 6]: 1.3; Fa (fraction affected) [4, 6]: 0.516; CI (Combination Index) [4, 7]: 1.3; Fa (fraction affected) [4, 7]: 0.683; CI (Combination Index) [4, 8]: 1.0; Fa (fraction affected) [4, 8]: 0.849; CI (Combination Index) [4, 9]: 0.4; Fa (fraction affected) [4, 9]: 0.962; CI (Combination Index) [5, 6]: 1.0; Fa (fraction affected) [5, 6]: 0.518; CI (Combination Index) [5, 7]: 1.1; Fa (fraction affected) [5, 7]: 0.75; CI (Combination Index) [5, 8]: 0.5; Fa (fraction affected) [5, 8]: 0.978; CI (Combination Index) [5, 9]: 0.2; Fa (fraction affected) [5, 9]: 0.998
CCCCCCCCCCC[C@H](O)[C@@H](N)CO [C14] | 23.7 | 0.001 | 3.8 | 0.065 | 1.0 | 0.717 | 0.5 | 0.958 | 1.3 | 0.103 | 1.3 | 0.307 | 1.4 | 0.575 | 1.0 | 0.845 | 1.4 | 0.318 | 1.2 | 0.586 | CI (Combination Index) [3, 8]: 1.2; Fa (fraction affected) [3, 8]: 0.814; CI (Combination Index) [3, 9]: 0.4; Fa (fraction affected) [3, 9]: 0.988; CI (Combination Index) [4, 6]: 1.0; Fa (fraction affected) [4, 6]: 0.544; CI (Combination Index) [4, 7]: 1.6; Fa (fraction affected) [4, 7]: 0.602; CI (Combination Index) [4, 8]: 1.0; Fa (fraction affected) [4, 8]: 0.839; CI (Combination Index) [4, 9]: 0.5; Fa (fraction affected) [4, 9]: 0.941; CI (Combination Index) [5, 6]: 0.8; Fa (fraction affected) [5, 6]: 0.606; CI (Combination Index) [5, 7]: 1.1; Fa (fraction affected) [5, 7]: 0.747; CI (Combination Index) [5, 8]: 1.0; Fa (fraction affected) [5, 8]: 0.93; CI (Combination Index) [5, 9]: 0.4; Fa (fraction affected) [5, 9]: 0.994
CCCCCCCCC[C@H](O)[C@@H](N)CO [C12] | 6.1 | 0.024 | 4.4 | 0.065 | 0.4 | 0.849 | 0.2 | 0.981 | 0.8 | 0.199 | 0.7 | 0.530 | 0.8 | 0.764 | 0.6 | 0.931 | 1.5 | 0.226 | 1.0 | 0.671 | CI (Combination Index) [3, 8]: 0.3; Fa (fraction affected) [3, 8]: 0.988; CI (Combination Index) [3, 9]: 0.2; Fa (fraction affected) [3, 9]: 0.996; CI (Combination Index) [4, 6]: 2.8; Fa (fraction affected) [4, 6]: 0.306; CI (Combination Index) [4, 7]: 3.6; Fa (fraction affected) [4, 7]: 0.408; CI (Combination Index) [4, 8]: 1.5; Fa (fraction affected) [4, 8]: 0.781; CI (Combination Index) [4, 9]: 0.2; Fa (fraction affected) [4, 9]: 0.981; CI (Combination Index) [5, 6]: 0.8; Fa (fraction affected) [5, 6]: 0.6; CI (Combination Index) [5, 7]: 1.0; Fa (fraction affected) [5, 7]: 0.757; CI (Combination Index) [5, 8]: 0.7; Fa (fraction affected) [5, 8]: 0.96; CI (Combination Index) [5, 9]: 0.5; Fa (fraction affected) [5, 9]: 0.988
